Patent US20210127673A1, “HERBICIDES” (SYNGENTA PARTICIPATIONS AG, priority 2016, published 2021)

How the values were obtained:
Format in all cases: in vivo
Details in all cases: 1000 g/ha, evaluated after 13 days
[1] = tested on: Triticum aestivium (TRZAW); assay: Pre-emergence herbicidal activity, Triticum aestivium; set-up: key: 5=total damage to plant; 0=no damage to plant
Experimental: (§1) Seeds of a variety of test species were sown in standard soil in pots: Triticum aestivium (TRZAW), Avena fatua (AVEFA), Alopecurus myosuroides (ALOMY), Echinochloa crus-galli (ECHCG), Lolium perenne (LOLPE), Zea Mays (ZEAMX), Abutilon theophrasti (ABUTH), Amaranthus retroflexus (AMARE) and Setaria faberi (SETFA). After cultivation for one day (pre-emergence) under controlled conditions in a glasshouse (at 24/16° C., day/night; 14 hours light; 65% humidity), the plants were sprayed with an aqueous spray solution derived from the formulation of the technical active ingredient in acetone/water (50:50) solution containing 0.5% Tween 20 (polyoxyethelyene sorbitan monolaurate, CAS RN 9005-64-5). The test plants were then grown in a glasshouse under controlled conditions (at 24/16°, day/night; 14 hours light; 65% humidity) and watered twice daily. After 13 days, the test was evaluated (5=total damage to plant; 0=no damage to plant).

Avena fatua (AVEFA) [2] = assay: Pre-emergence herbicidal activity, Avena fatua; set-up: key: 5=total damage to plant; 0=no damage to plant
Experimental: as §1

[3] = tested on: Alopecurus myosuroides (ALOMY); assay: Pre-emergence herbicidal activity, Alopecurus myosuroides; set-up: key: 5=total damage to plant; 0=no damage to plant
Experimental: as §1

[4] = tested on: Echinochloa crus-galli (ECHCG); assay: Pre-emergence herbicidal activity, Echinochloa crus-galli
Experimental: as §1

Lolium perenne (LOLPE) [5] = assay: Pre-emergence herbicidal activity, Lolium perenne; set-up: key: 5=total damage to plant; 0=no damage to plant
Experimental: as §1

Setaria faberi (SETFA) [6] = assay: Pre-emergence herbicidal activity, Setaria faberi; set-up: key: 5=total damage to plant; 0=no damage to plant
Experimental: as §1

[7] = tested on: Triticum aestivium (TRZAW); assay: Post-emergence herbicidal activity, Triticum aestivium; set-up: key: 5=total damage to plant; 0=no damage to plant
Experimental: (§2) Seeds of a variety of test species were sown in standard soil in pots: Triticum aestivium (TRZAW), Avena fatua (AVEFA), Alopecurus myosuroides (ALOMY), Echinochloa crus-galli (ECHCG), Lolium perenne (LOLPE), Zea Mays (ZEAMX), Abutilon theophrasti (ABUTH), Amaranthus retroflexus (AMARE) and Setaria faberi (SETFA). After 8 days cultivation (post-emergence) under controlled conditions in a glasshouse (at 24/16° C., day/night; 14 hours light; 65% humidity), the plants were sprayed with an aqueous spray solution derived from the formulation of the technical active ingredient in acetone/water (50:50) solution containing 0.5% Tween 20 (polyoxyethelyene sorbitan monolaurate, CAS RN 9005-64-5). The test plants were then grown in a glasshouse under controlled conditions (at 24/16° C., day/night; 14 hours light; 65% humidity) and watered twice daily. After 13 days, the test was evaluated (5=total damage to plant; 0=no damage to plant).

Avena fatua (AVEFA) [8] = assay: Post-emergence herbicidal activity, Avena fatua
Experimental: as §2

[9] = tested on: Alopecurus myosuroides (ALOMY); assay: Post-emergence herbicidal activity, Alopecurus myosuroides; set-up: key: 5=total damage to plant; 0=no damage to plant
Experimental: as §2

[10] = tested on: Echinochloa crus-galli (ECHCG); assay: Post-emergence herbicidal activity, Echinochloa crus-galli; set-up: key: 5=total damage to plant; 0=no damage to plant
Experimental: as §2

Lolium perenne (LOLPE) [11] = assay: Post-emergence herbicidal activity, Lolium perenne
Experimental: as §2

Setaria faberi (SETFA) [12] = assay: Post-emergence herbicidal activity, Setaria faberi; set-up: key: 5=total damage to plant; 0=no damage to plant
Experimental: as §2

Compound	Control of TRAZW after pre-emergence application (score 0-5) [1]	Control of AVEFA after pre-emergence application (score 0-5) (Avena fatua (AVEFA) [2])	Control of ALOMY after pre-emergence application (score 0-5) [3]	Control of ECHCG after pre-emergence application (score 0-5) [4]	Control of LOLPE after pre-emergence application (score 0-5) (Lolium perenne (LOLPE) [5])	Control of SETFA after pre-emergence application (score 0-5) (Setaria faberi (SETFA) [6])	Control of TRAZW after post-emergence application (score 0-5) [7]	Control of AVEFA after post-emergence application (score 0-5) (Avena fatua (AVEFA) [8])	Control of ALOMY after post-emergence application (score 0-5) [9]	Control of ECHCG after post-emergence application (score 0-5) [10]	Control of LOLPE after post-emergence application (score 0-5) (Lolium perenne (LOLPE) [11])	Control of SETFA after post-emergence application (score 0-5) (Setaria faberi (SETFA) [12])
C#CCNC(=O)Nc1ccc(-c2cncc(F)c2)nc1C(F)(F)F [Compound B41]	0	1	0	4	1	5	0	3	0	4	2	5
CCCOC(=O)Nc1ccc(-c2cncc(F)c2)nc1C(F)(F)F [Compound B42]	0	3	1	4	1	5	2	4	1	5	3	5
CC(C)COC(=O)Nc1ccc(-c2cncc(F)c2)nc1C(F)(F)F [Compound B43]	1	1	1	3	1	4	2	4	1	4	3	5
CC(C)NC(=O)Nc1ccc(-c2cncnc2)nc1C(F)(F)F [Compound B44]	0	2	0	3	1	3	1	3	1	4	2	4
O=C1OCCN1c1ccc(-c2cncc(F)c2)nc1C(F)(F)F [Compound B45, 3-[6-(5-fluoro-3-pyridyl)-2-(trifluoromethyl)-3-pyridyl]oxazolidin-2-one]	0	0	0	3	0	3	1	3	1	4	2	4
CN1CCN(c2ccc(-c3cncc(F)c3)nc2C(F)(F)F)C1=O [Compound B46]	0	1	0	2	0	4	0	3	0	4	2	4
NC(=O)Nc1ccc(-c2cncc(F)c2)nc1C(F)(F)F [Compound B47]	0	1	0	4	1	5	0	3	0	4	2	5
CN1CCN(C(=O)Nc2ccc(-c3cncc(F)c3)nc2C(F)(F)F)CC1 [Compound B48]	0	1	0	3	1	4	0	2	0	4	1	5
CNC(=O)Nc1ccc(-c2cncc(F)c2)nc1C(F)(F)F [Compound B49]	0	2	0	3	0	4	0	2	0	4	2	4
O=C(Nc1ccc(-c2cncc(F)c2)nc1C(F)(F)F)NC1CCCC1 [Compound B50]	0	1	0	2	1	4	0	3	0	4	1	5
O=C(Nc1ccc(-c2cncc(F)c2)nc1C(F)(F)F)N1CCCCC1 [Compound B51]	0	1	0	2	1	5	0	3	0	4	3	5
